Reference: the OligoGym collection
HELM strings list units from the 5' end as sugar, base in round brackets, then linkage (d deoxyribose, r ribose, m 2'-O-methyl, p phosphodiester). Strings are as the collection lists them, not checked against the first reports. ss, as = sense and antisense strand; [lna] = locked nucleic acid (LNA); [hna] = hexitol nucleic acid; [s4r] = 4'-thioribose; [fl2r] = 2'-fluoro

Details: siRNA
Also: test system not given here.

Q: With “RNA1{m(G)p.r(A)p.m(G)p.r(A)p.m(G)p.r(A)p.m(G)p.r(A)p.m(C)p.r(G)p.m(G)p.r(U)p.m(G)p.r(G)p.m(A)p.r(A)p.m(G)p.r(A)p.m(A)p.r(T)p.r(T)}|RNA2{r(U)p.r(U)p.r(C)p.r(U)p.r(U)p.r(C)p.r(C)p.r(A)p.r(C)p.r(C)p.m(G)p.r(U)p.r(C)p.r(U)p.r(C)p.r(U)p.r(C)p.r(U)p.r(C)p.r(T)p.r(T)}$$$RNA1{StrandType:ss}|RNA2{StrandType:as}$” as the substance, how does the target mRNA knockdown read?
A: The target mRNA knockdown was 56%.

Q: For “RNA1{[fl2r](G)p.m(A)p.[fl2r](C)p.m(G)p.[fl2r](U)p.m(A)p.[fl2r](A)p.m(A)p.[fl2r](C)p.m(G)p.[fl2r](G)p.m(C)p.[fl2r](C)p.m(A)p.[fl2r](C)p.m(A)p.[fl2r](A)p.m(G)p.[fl2r](U)p.m(U)p.[fl2r](C)}|RNA2{r(A)p.m(C)p.r(U)p.r(U)p.r(G)p.r(U)p.r(G)p.r(G)p.r(C)p.r(C)p.r(G)p.r(U)p.r(U)p.r(U)p.r(A)p.r(C)p.r(G)p.r(U)p.r(C)p.r(G)p.r(C)}$$$RNA1{StrandType:ss}|RNA2{StrandType:as}$”, which target mRNA knockdown is on record?
A: Its target mRNA knockdown is 46.2%.

Q: With “RNA1{r(A)p.r(C)p.r(C)p.r(U)p.[fl2r](U)p.r(A)p.r(A)p.r(G)p.r(G)p.r(A)p.r(C)p.r(C)p.r(A)p.r(C)p.r(C)p.r(G)p.r(G)p.r(A)p.r(U)p.r(T)p.r(T)}|RNA2{r(A)p.r(U)p.r(C)p.r(C)p.r(G)p.r(G)p.[fl2r](U)p.r(G)p.r(G)p.r(U)p.r(C)p.r(C)p.r(U)p.r(U)p.r(A)p.r(A)p.r(G)p.r(G)p.r(U)p.r(T)p.r(T)}$$$RNA1{StrandType:ss}|RNA2{StrandType:as}$” as the substance, how does the target mRNA knockdown read?
A: The target mRNA knockdown was 71%.

Q: For “RNA1{r(A)p.r(A)p.r(G)p.r(G)p.m(C)p.r(A)p.m(U)p.m(G)p.r(C)p.r(U)p.r(U)p.r(C)p.r(G)p.r(G)p.r(A)p.r(A)p.r(A)p.r(C)p.r(U)p.r(T)p.r(T)}|RNA2{r(A)p.r(G)p.r(U)p.r(U)p.r(U)p.r(C)p.r(C)p.r(G)p.r(A)p.r(A)p.r(G)p.m(C)p.r(A)p.m(U)p.r(G)p.r(C)p.r(C)p.r(U)p.r(U)p.r(T)p.r(T)}$$$RNA1{StrandType:ss}|RNA2{StrandType:as}$”, which target mRNA knockdown is on record?
A: Its target mRNA knockdown is 87%.

Q: For “RNA1{r(A)p.r(A)p.r(G)p.r(G)p.r(A)p.r(A)p.r(C)p.r(G)p.r(G)p.r(G)p.r(G)p.r(A)p.m(C)p.r(A)p.r(C)p.r(U)p.m(U)p.r(A)p.r(C)p.r(T)p.r(T)}|RNA2{r(G)p.m(U)p.r(A)p.r(A)p.r(G)p.m(U)p.r(G)p.r(U)p.r(C)p.r(C)p.r(C)p.r(C)p.r(G)p.r(U)p.r(U)p.r(C)p.r(C)p.r(U)p.r(U)p.r(T)p.r(T)}$$$RNA1{StrandType:ss}|RNA2{StrandType:as}$”, which target mRNA knockdown is on record?
A: The target mRNA knockdown was 35%.

Q: For “RNA1{r(C)p.[fl2r](C)p.r(A)p.r(G)p.r(C)p.r(G)p.r(A)p.r(G)p.r(C)p.r(C)p.[fl2r](C)p.r(A)p.r(A)p.r(A)p.r(A)p.[fl2r](G)p.r(A)p.r(A)p.r(A)p.r(T)p.r(T)}|RNA2{r(U)p.r(U)p.r(U)p.r(C)p.r(U)p.r(U)p.r(U)p.[fl2r](U)p.r(G)p.r(G)p.r(G)p.r(C)p.r(U)p.r(C)p.r(G)p.r(C)p.[fl2r](U)p.r(G)p.r(G)p.r(T)p.r(T)}$$$RNA1{StrandType:ss}|RNA2{StrandType:as}$”, which target mRNA knockdown is on record?
A: Its target mRNA knockdown is 82%.

Q: With “RNA1{[lna](G)p.r(C)p.r(U)p.r(G)p.r(A)p.r(C)p.r(C)p.r(C)p.r(U)p.r(G)p.r(A)p.r(A)p.r(G)p.r(U)p.r(U)p.r(C)p.r(A)p.r(U)p.r(C)p.[lna](T)p.[lna](T)}|RNA2{r(G)p.r(A)p.r(U)p.r(G)p.r(A)p.r(A)p.r(C)p.r(U)p.r(U)p.r(C)p.r(A)p.r(G)p.r(G)p.r(G)p.r(U)p.r(C)p.r(A)p.r(G)p.r(C)p.[lna](T)p.[lna](T)}$$$RNA1{StrandType:ss}|RNA2{StrandType:as}$” as the substance, how does the target mRNA knockdown read?
A: The target mRNA knockdown was 61%.

Q: For “RNA1{[s4r](C)p.[s4r](G)p.[s4r](U)p.[s4r](A)p.[s4r](C)p.[s4r](G)p.r(C)p.r(G)p.r(G)p.r(A)p.r(A)p.r(U)p.r(A)p.r(C)p.r(U)p.r(U)p.r(C)p.r(G)p.r(A)p.r(T)p.r(T)}|RNA2{r(U)p.r(C)p.r(G)p.r(A)p.r(A)p.r(G)p.r(U)p.r(A)p.r(U)p.r(U)p.r(C)p.r(C)p.r(G)p.[s4r](C)p.[s4r](G)p.[s4r](U)p.[s4r](A)p.[s4r](C)p.[s4r](G)p.r(T)p.r(T)}$$$RNA1{StrandType:ss}|RNA2{StrandType:as}$”, which target mRNA knockdown is on record?
A: The target mRNA knockdown was 47.8%.

Q: With “RNA1{r(C)p.r(G)p.r(U)p.r(A)p.r(C)p.r(G)p.r(C)p.r(G)p.r(G)p.r(A)p.r(A)p.r(U)p.r(A)p.r(C)p.r(U)p.r(U)p.r(C)p.r(G)p.r(A)p.r(T)p.r(T)}|RNA2{[s4r](U)p.r(C)p.r(G)p.r(A)p.r(A)p.r(G)p.[s4r](U)p.r(A)p.[s4r](U)p.[s4r](U)p.r(C)p.r(C)p.r(G)p.r(C)p.r(G)p.[s4r](U)p.r(A)p.r(C)p.r(G)p.r(T)p.r(T)}$$$RNA1{StrandType:ss}|RNA2{StrandType:as}$” as the substance, how does the target mRNA knockdown read?
A: Its target mRNA knockdown is 79.5%.

Q: Which target mRNA knockdown does the source give for “RNA1{m(G)p.r(G)p.m(G)p.r(G)p.m(C)p.r(U)p.m(C)p.r(U)p.m(U)p.r(C)p.m(U)p.r(A)p.m(C)p.r(A)p.m(U)p.r(U)p.m(C)p.r(C)p.m(C)p.r(T)p.r(T)}|RNA2{r(G)p.r(G)p.r(G)p.r(A)p.r(A)p.r(U)p.r(G)p.r(U)p.r(A)p.r(G)p.r(A)p.r(A)p.r(G)p.r(A)p.r(G)p.r(C)p.r(C)p.r(C)p.r(C)p.r(T)p.r(T)}$$$RNA1{StrandType:ss}|RNA2{StrandType:as}$” here?
A: The target mRNA knockdown was 51%.

Q: For “RNA1{[lna](G)p.r(G)p.r(C)p.r(C)p.r(U)p.r(U)p.r(U)p.r(C)p.r(A)p.r(C)p.r(U)p.r(A)p.r(C)p.r(U)p.r(C)p.r(C)p.r(U)p.r(A)p.r(C)p.[lna](G)p.[lna](A)}|RNA2{r(G)p.r(U)p.r(A)p.r(G)p.r(G)p.r(A)p.r(G)p.r(U)p.r(A)p.r(G)p.r(U)p.r(G)p.r(A)p.r(A)p.r(A)p.r(G)p.r(G)p.r(C)p.r(C)p.r(A)p.r(G)}$$$RNA1{StrandType:ss}|RNA2{StrandType:as}$”, which target mRNA knockdown is on record?
A: Its target mRNA knockdown is 83%.

Q: For “RNA1{[fl2r](A)p.r(G)p.[fl2r](A)p.r(A)p.[fl2r](G)p.r(U)p.[fl2r](A)p.r(C)p.[fl2r](C)p.r(A)p.[fl2r](G)p.r(G)p.[fl2r](A)p.r(G)p.[fl2r](G)p.r(C)p.[fl2r](G)p.r(U)p.[fl2r](U)p.r(T)p.r(T)}|RNA2{r(A)p.r(A)p.r(C)p.[fl2r](G)p.r(C)p.r(C)p.r(U)p.r(C)p.r(C)p.r(U)p.[fl2r](G)p.[fl2r](G)p.r(U)p.r(A)p.r(C)p.r(U)p.r(U)p.r(C)p.r(U)p.r(T)p.r(T)}$$$RNA1{StrandType:ss}|RNA2{StrandType:as}$”, which target mRNA knockdown is on record?
A: Its target mRNA knockdown is 39%.

Q: With “RNA1{[fl2r](A)p.r(G)p.[fl2r](A)p.r(C)p.[fl2r](U)p.r(A)p.[fl2r](A)p.r(G)p.[fl2r](C)p.r(C)p.[fl2r](C)p.r(A)p.[fl2r](A)p.r(A)p.[fl2r](A)p.r(G)p.[fl2r](G)p.r(G)p.[fl2r](C)p.r(T)p.r(T)}|RNA2{r(G)p.r(C)p.r(C)p.r(C)p.r(U)p.r(U)p.r(U)p.r(U)p.r(G)p.r(G)p.r(G)p.r(C)p.r(U)p.r(U)p.r(A)p.r(G)p.r(U)p.r(C)p.r(U)p.r(T)p.r(T)}$$$RNA1{StrandType:ss}|RNA2{StrandType:as}$” as the substance, how does the target mRNA knockdown read?
A: The target mRNA knockdown was 26%.

Q: Which target mRNA knockdown does the source give for “RNA1{r(G)p.r(A)p.r(C)p.r(G)p.r(U)p.r(A)p.r(A)p.r(A)p.r(C)p.r(G)p.r(G)p.r(C)p.r(C)p.r(A)p.r(C)p.r(A)p.r(A)p.r(G)p.r(U)p.r(U)p.r(C)}|RNA2{[fl2r](A)p.m(C)p.[fl2r](U)p.m(U)p.[fl2r](G)p.m(U)p.[fl2r](G)p.m(G)p.[fl2r](C)p.m(C)p.[fl2r](G)p.m(U)p.[fl2r](U)p.m(U)p.[fl2r](A)p.m(C)p.[fl2r](G)p.m(U)p.[fl2r](C)p.m(G)p.[fl2r](C)}$$$RNA1{StrandType:ss}|RNA2{StrandType:as}$” here?
A: The target mRNA knockdown was 73.8%.

Q: With “RNA1{r(C)p.r(U)p.r(U)p.r(A)p.r(C)p.r(G)p.r(C)p.r(U)p.r(G)p.r(A)p.r(G)p.r(U)p.r(A)p.r(C)p.r(U)p.r(U)p.r(C)p.r(G)p.r(A)p.r(T)p.r(T)}|RNA2{[lna](T)p.r(C)p.r(G)p.r(A)p.r(A)p.r(G)p.r(U)p.r(A)p.r(C)p.r(U)p.r(C)p.r(A)p.r(G)p.r(C)p.r(G)p.r(U)p.r(A)p.r(A)p.r(G)p.[lna](T)p.[lna](T)}$$$RNA1{StrandType:ss}|RNA2{StrandType:as}$” as the substance, how does the target mRNA knockdown read?
A: Its target mRNA knockdown is 57%.

Q: For “RNA1{[hna](G)p.[hna](A)p.[hna](C)p.r(G)p.r(U)p.r(A)p.r(A)p.r(A)p.r(C)p.r(G)p.r(G)p.r(C)p.r(C)p.r(A)p.r(C)p.r(A)p.r(A)p.[hna](G)p.[hna](U)p.[hna](U)p.d(T)}|RNA2{r(A)p.r(C)p.[hna](U)p.r(U)p.r(G)p.r(U)p.r(G)p.r(G)p.r(C)p.r(C)p.r(G)p.r(U)p.r(U)p.r(U)p.r(A)p.r(C)p.r(G)p.[hna](U)p.[hna](C)p.[hna](G)p.d(T)}$$$RNA1{StrandType:ss}|RNA2{StrandType:as}$”, which target mRNA knockdown is on record?
A: Its target mRNA knockdown is 80.6%.

Q: For “RNA1{r(U)p.r(U)p.r(C)p.[fl2r](U)p.r(A)p.r(A)p.r(C)p.r(C)p.r(G)p.r(G)p.r(G)p.r(C)p.r(A)p.r(G)p.r(C)p.r(U)p.r(U)p.r(C)p.r(U)p.r(T)p.r(T)}|RNA2{r(A)p.r(G)p.r(A)p.r(A)p.r(G)p.r(C)p.r(U)p.r(G)p.r(C)p.r(C)p.r(C)p.r(G)p.r(G)p.r(U)p.[fl2r](U)p.r(A)p.r(G)p.r(A)p.r(A)p.r(T)p.r(T)}$$$RNA1{StrandType:ss}|RNA2{StrandType:as}$”, which target mRNA knockdown is on record?
A: Its target mRNA knockdown is 72%.

Q: With “RNA1{[fl2r](G)p.m(A)p.[fl2r](C)p.m(G)p.[fl2r](U)p.m(A)p.[fl2r](A)p.m(A)p.[fl2r](C)p.m(G)p.[fl2r](G)p.m(C)p.[fl2r](C)p.m(A)p.[fl2r](C)p.m(A)p.[fl2r](A)p.m(G)p.[fl2r](U)p.m(U)p.[fl2r](C)}|RNA2{[fl2r](A)p.m(C)p.[fl2r](U)p.m(U)p.[fl2r](G)p.m(U)p.[fl2r](G)p.m(G)p.[fl2r](C)p.m(C)p.[fl2r](G)p.m(U)p.[fl2r](U)p.m(U)p.[fl2r](A)p.m(C)p.[fl2r](G)p.m(U)p.[fl2r](C)p.m(G)p.[fl2r](C)}$$$RNA1{StrandType:ss}|RNA2{StrandType:as}$” as the substance, how does the target mRNA knockdown read?
A: The target mRNA knockdown was 23.8%.

Q: For “RNA1{m(G)p.m(C)p.m(A)p.m(G)p.m(C)p.m(A)p.m(C)p.m(G)p.m(A)p.m(C)p.m(U)p.m(U)p.m(C)p.m(U)p.m(U)p.m(C)p.m(A)p.m(A)p.m(G)p.r(T)p.r(T)}|RNA2{r(C)p.r(U)p.r(U)p.r(G)p.r(A)p.r(A)p.r(G)p.r(A)p.r(A)p.r(G)p.r(U)p.r(C)p.r(G)p.r(U)p.r(G)p.r(C)p.r(U)p.r(G)p.r(C)p.r(T)p.r(T)}$$$RNA1{StrandType:ss}|RNA2{StrandType:as}$”, which target mRNA knockdown is on record?
A: The target mRNA knockdown was 25%.
